From patent US11505548B2, “Heterocyclic compounds and their use for treatment of helminthic infections and diseases” (Celgene Corporation, priority 2019, dated 2022)

System: Onchocerca gutturosa Adult Male Worms
Experiment: Onchocerciasis in vitro screening model, worm motility score
Type: cell-based
Settings: Onchocerca gutturosa; Table 1 O. gutturosa; levels A/B/C; motility or MTT readout not specified; read-out: O. gutturosa activity level (IC50 or MED)

Row | SMILES | IC50
1 | CN(C)c1cccnc1Nc1nc(-c2cc(OC3CC3)c(C(F)(F)F)cn2)ns1 [Compound 153, N2-(3-(4-cyclo-propoxy-5-(trifluoromethyl)pyridin-2-yl)-1,2,4-thiadiazol-5-yl)-N3,N3-dimethyl-pyridine-2,3-diamine] | 0.5 to 5 µM
2 | CC(C)Oc1ccc(-c2nnc(Nc3cc(C(F)(F)F)c(C(C)C)cn3)o2)nc1 [Compound 154, 5-(5-isoprop-oxypyridin-2-yl)-N-(5-isopropyl-4-(trifluoro-methyl)pyridin-2-yl)-1,3,4-oxadiazol-2-amine] | 0.2 to 0.5 µM
3 | CC(C)Oc1ccc(-c2nsc(Nc3ncccc3N(C)C)n2)nn1 [Compound 155, N2-(3-(6-isopropoxy-pyridazin-3-yl)-1,2,4-thiadiazol-5-yl)-N3,N3-dimethyl-pyridine-2,3-diamine] | 0.5 to 5 µM
4 | CC(C)Oc1cnc(-c2nsc(Nc3ncccc3N(C)C)n2)cc1C(F)(F)F [Compound 156, N2-(3-(5-isopropoxy-4-(trifluoromethyl)pyridin-2-yl)-1,2,4-thiadiazol-5-yl)-N3,N3-dimethyl-pyridine-2,3-diamine] | < 0.2 µM
5 | CC(=O)N(C)c1cccnc1Nc1nc(-c2ccc(OC(C)C)cn2)ns1 [Compound 157, N-(2-(3-(5-isopropoxy-pyridin-2-yl)-1,2,4-thiadiazol-5-ylamino)pyridin-3-yl)-N-methyl-acetamide] | 0.5 to 5 µM
6 | COc1cnc(-c2nnc(Nc3ncccc3N(C)C)o2)cn1 [Compound 158, N2-(5-(5-methoxy-pyrazin-2-yl)-1,3,4-oxadiazol-2-yl)-N3,N3-dimethyl-pyridine-2,3-diamine] | 0.5 to 5 µM
7 | CNc1cccnc1N(C)c1nc(-c2ccc(OC(C)C)cn2)ns1 [Compound 159, N2-(3-(5-isopropoxy-pyridin-2-yl)-1,2,4-thiadiazol-5-yl)-N2,N3-dimethyl-pyridine-2,3-diamine] | 0.5 to 5 µM
8 | CC(C)Oc1cnc(-c2nnc(Nc3ncccc3N(C)C)o2)cc1C(F)(F)F [Compound 160, N2-(5-(5-isopropoxy-4-(trifluoromethyl)pyridin-2-yl)-1,3,4-oxadiazol-2-yl)-N3,N3-dimethyl-pyridine-2,3-diamine] | 0.5 to 5 µM
9 | CC(=O)Nc1cccnc1Nc1nc(-c2ccc(OC(C)C)cn2)ns1 [Compound 161, N-(2-(3-(5-isopropoxy-pyridin-2-yl)-1,2,4-thiadiazol-5-ylamino)pyridin-3-yl)acetamide] | 0.5 to 5 µM
10 | CN(C)c1cccnc1Nc1nc(-c2cc3c(cn2)N(C)CC3)ns1 [Compound 162, N3,N3-dimethyl-N2-(3-(1-methyl-2,3-dihydro-1H-pyrrolo[2,3-c]pyridin-5-yl)-1,2,4-thiadiazol-5-yl)pyridine-2,3-diamine] | < 0.2 µM
11 | CN1Cc2ccnc(-c3nsc(Nc4ncccc4N(C)C)n3)c2C1 [Compound 163, N3,N3-dimethyl-N2-(3-(2-methyl-2,3-dihydro-1H-pyrrolo[3,4-c]pyridin-4-yl)-1,2,4-thia-diazol-5-yl)pyridine-2,3-diamine] | < 0.2 µM
12 | CC(C)Oc1ccc(-c2nsc(Nc3ncccc3C(N)=O)n2)nc1 [Compound 164, 2-(3-(5-isoprop-oxypyridin-2-yl)-1,2,4-thiadiazol-5-ylamino) nicotinamide] | 0.5 to 5 µM
13 | CC(C)Oc1ccc(-c2nsc(Nc3ncc(C(C)C)cc3C(F)(F)F)n2)nc1 [Compound 165, 3-(5-isopropoxy-pyridin-2-yl)-N-(5-isopropyl-3-(trifluoromethyl)pyridin-2-yl)-1,2,4-thiadiazol-5-amine] | < 0.2 µM
14 | COc1cc(C(C)C)cnc1Nc1nc(-c2ccc(OC(C)C)cn2)ns1 [Compound 166, 3-(5-isopropoxy-pyridin-2-yl)-N-(5-isopropyl-3-methoxypyridin-2-yl)-1,2,4-thiadiazol-5-amine] | < 0.2 µM
15 | COc1cccnc1Nc1nc(-c2cc(C(F)(F)F)c(OC(C)C)cn2)ns1 [Compound 167, 3-(5-isopropoxy-4-(trifluoromethyl)pyridin-2-yl)-N-(3-methoxypyridin-2-yl)-1,2,4-thiadiazol-5-amine] | 0.2 to 0.5 µM
16 | CC(C)Oc1cnc(-c2nsc(Nc3ncccc3C(C)C)n2)cc1C(F)(F)F [Compound 168, 3-(5-isoprop-oxy-4-(trifluoromethyl)pyridin-2-yl)-N-(3-isopropyl-pyridin-2-yl)-1,2,4-thiadiazol-5-amine] | < 0.2 µM
17 | CC(C)Oc1ccc(-c2nsc(Nc3ncccc3N(C)C(=O)C(C)C)n2)nc1 [Compound 169, N-(2-(3-(5-isopropoxy-pyridin-2-yl)-1,2,4-thiadiazol-5-ylamino)pyridin-3-yl)-N-methyliso-butyramide] | 0.2 to 0.5 µM
18 | CC(C)Oc1ccc(-c2nsc(Nc3ncccc3N(C)C(=O)C3CC3)n2)nc1 [Compound 170, N-(2-(3-(5-isopropoxy-pyridin-2-yl)-1,2,4-thiadiazol-5-ylamino)pyridin-3-yl)-N-methylcyclo-propanecarbox-amide] | 0.2 to 0.5 µM
19 | CC(C)Oc1ccc(-c2nsc(Nc3ncccc3N(C)C(=O)C3CCC3)n2)nc1 [Compound 171, N-(2-(3-(5-isopropoxy-pyridin-2-yl)-1,2,4-thiadiazol-5-ylamino)pyridin-3-yl)-N-methylcyclo-butane-carboxamide] | < 0.2 µM

Row | SMILES | IC50
20 | CC(C)Oc1ccc(-c2nsc(Nc3ncccc3N(C)C(=O)C3CCCC3)n2)nc1 [Compound 172, N-(2-(3-(5-isopropoxy-pyridin-2-yl)-1,2,4-thiadiazol-5-ylamino)pyridin-3-yl)-N-methylcyclo-pentane-carboxamide] | < 0.2 µM
21 | Cc1cccnc1Nc1nnc(-c2cc(OC(C)C)ccn2)s1 [Compound 173, 5-(4-isopropoxy-pyridin-2-yl)-N-(3-methyl-pyridin-2-yl)-1,3,4-thia-diazol-2-amine] | 0.5 to 5 µM
22 | COc1ccnc(-c2nnc(Nc3ccc(C(F)(F)F)cn3)s2)c1 [Compound 174, 5-(4-methoxy-pyridin-2-yl)-N-(5-(trifluoromethyl)pyridin-2-yl)-1,3,4-thiadiazol-2-amine] | 0.2 to 0.5 µM
23 | COc1ccnc(-c2nsc(Nc3ccc(C(F)(F)F)cn3)n2)c1 [Compound 176, 3-(4-methoxy-pyridin-2-yl)-N-(5-(trifluoromethyl)pyridin-2-yl)-1,2,4-thiadiazol-5-amine] | < 0.2 µM
24 | COc1ccnc(-c2nsc(Nc3ccc(C(C)C)cn3)n2)c1 [Compound 177, N-(5-isopropyl-pyridin-2-yl)-3-(4-methoxy-pyridin-2-yl)-1,2,4-thiadiazol-5-amine] | < 0.2 µM
25 | CC(C)Oc1ccc(-c2nsc(Nc3ncccc3N3CCCC3=O)n2)nc1 [Compound 178, 1-(2-(3-(5-isopropoxy-pyridin-2-yl)-1,2,4-thiadiazol-5-ylamino)pyridin-3-yl)pyrrolidin-2-one] | 0.5 to 5 µM
26 | CC(C)Oc1cnc(-c2nsc(Nc3ncccc3N3CCCC3=O)n2)cc1C(F)(F)F [Compound 179, 1-(2-(3-(5-isopropoxy-4-(trifluoromethyl)pyridin-2-yl)-1,2,4-thiadiazol-5-ylamino)pyridin-3-yl)pyrrolidin-2-one] | 0.5 to 5 µM
27 | COc1ccc(Nc2nnc(-c3ccc(OC(C)C)cn3)o2)nc1 [Compound 180, 5-(5-isopropoxy-pyridin-2-yl)-N-(5-methoxy-pyridin-2-yl)-1,3,4-oxadiazol-2-amine] | 0.5 to 5 µM
28 | CC(C)Oc1ccc(-c2nnc(Nc3ccc(C(C)C)cn3)s2)nc1 [Compound 181, 5-(5-isopropoxy-pyridin-2-yl)-N-(5-isopropyl-pyridin-2-yl)-1,3,4-thiadiazol-2-amine] | 0.5 to 5 µM
29 | COc1ccnc(-c2nsc(Nc3cc(C(F)(F)F)c(C(C)C)cn3)n2)c1 [Compound 182, N-(5-iso-propyl-4-(trifluoro-methyl)pyridin-2-yl)-3-(4-methoxy-pyridin-2-yl)-1,2,4-thiadiazol-5-amine] | 0.2 to 0.5 µM
30 | COc1ccc(Nc2nc(-c3cc(OC4CCCCC4)ccn3)ns2)nc1 [Compound 183, 3-(4-(cyclo-hexyloxy)pyridin-2-yl)-N-(5-methoxypyridin-2-yl)-1,2,4-thiadiazol-5-amine] | 0.2 to 0.5 µM
31 | COc1ccnc(-c2nsc(Nc3ccc(OC(C)C)cn3)n2)c1 [Compound 184, N-(5-isoprop-oxypyridin-2-yl)-3-(4-methoxy-pyridin-2-yl)-1,2,4-thiadiazol-5-amine] | < 0.2 µM
32 | COc1ccc(-c2nsc(Nc3ccc(C(C)C)cn3)n2)nc1 [Compound 185, N-(5-isopropyl-pyridin-2-yl)-3-(5-methoxy-pyridin-2-yl)-1,2,4-thiadiazol-5-amine] | 0.2 to 0.5 µM
33 | CC(C)Oc1cnc(-c2nsc(Nc3ncccc3N(C)C(=O)C3CC3)n2)cc1C(F)(F)F [Compound 186, N-(2-(3-(5-isopropoxy-4-(trifluoro-methyl)pyridin-2-yl)-1,2,4-thiadiazol-5-ylamino)pyridin-3-yl)-N-methylcyclo-propanecarbox-amide] | 0.5 to 5 µM
34 | CC(=O)N(C)c1cccnc1Nc1nc(-c2cc(C(F)(F)F)c(OC(C)C)cn2)ns1 [Compound 187, N-(2-(3-(5-isopropoxy-4-(trifluoro-methyl)pyridin-2-yl)-1,2,4-thiadiazol-5-ylamino)pyridin-3-yl)-N-methylacetamide] | 0.5 to 5 µM
35 | CC(C)Oc1ccc(-c2nsc(Nc3ncccc3C(=O)N(C)C)n2)nc1 [Compound 188, 2-(3-(5-isoprop-oxypyridin-2-yl)-1,2,4-thiadiazol-5-ylamino)-N,N-dimethyl nicotinamide] | 0.2 to 0.5 µM
36 | CNC(=O)c1cccnc1Nc1nc(-c2ccc(OC(C)C)cn2)ns1 [Compound 189, 2-(3-(5-isoprop-oxypyridin-2-yl)-1,2,4-thiadiazol-5-ylamino)-N-methyl-nicotinamide] | 0.5 to 5 µM
37 | CC(C)Oc1ccc(-c2nsc(Nc3ncccc3C(=O)N3CCCC3)n2)nc1 [Compound 190, (2-(3-(5-isoprop-oxypyridin-2-yl)-1,2,4-thiadiazol-5-ylamino)pyridin-3-yl) (pyrrolidin-1-yl) methanone] | 0.2 to 0.5 µM
38 | CC(C)Oc1ccc(-c2nsc(Nc3ncccc3C(=O)N(C)C3CC(F)(F)C3)n2)nc1 [Compound 191, N-(3,3-difluoro-cyclobutyl)-2-(3-(5-isoprop-oxypyridin-2-yl)-1,2,4-thiadiazol-5-ylamino)-N-methyl-nicotinamide] | 0.2 to 0.5 µM
